Results as given in patent publication EP0431799A2, “Use of nucleoside derivatives as cytotoxic agents” (THE WELLCOME FOUNDATION LIMITED, priority 1989, dated 1991).

Test system: P388 tumor cells
Set-up: species or system Male CD2-F₁ mice
Settings: mouse, in vivo, po
Text: The tests employed for evaluating the antitumour activity of compounds of the present invention are essentially those used in the Tumor Panel of the Developmental Therapeutics Program, Divison of Cancer Treatment National Cancer Institute, A Goldin, et al., Methods in Cancer Research, Vol. XVI, p. 165, Academic Press (1979). Some modifications in dose level and schedule have been made to increase the testing efficiency.
Male CD2-F₁ mice, weighing 20 ± 3 g, were used for this test. Control and test animals were injected intraperitioneally with a suspension of ∼10⁶ viable P388 tumor cells on day 0. In each test, several dose levels which bracketed the LD₂₀ of the compound were evaluated; each dose level group contained six animals. The test compounds were prepared either in physiologic saline containing 0.05% Tween 80 or distilled water containing 5% dextrose and were administered (a) orally, (b) intravenously or (c) intraperitoneally according to the indicated schedule relative to the day of tumour implant. Doses were on a mg/kg basis according to individual animals' body weights. The day of death for each animal was recorded, the median identified for each group and the percent increase in life span (%ILS) was calculated from the ratios of median survival time for treated to control groups. The criterion for activity is % ILS greater than or equal to 20%.

Nc1ncnc2c1ncn2[C@@H]1CC[C@@H](O)[C@H]1O (racemic) [(±)-(1R*,2S*,3R*)-3-(6-amino-9H-purin-9-yl)-1,2-cyclopentanediol]
Toxic at:: 35 mg/kg
